According to patent publication US20220119354A1, “DIAMINO-SUBSTITUTED PYRIDINES AND PYRIMIDINES AS HERBICIDES” (FMC Corporation, priority 2019, published 2022):

Legend:
Type in all cases: in vivo
[1] = test system: sedge, umbrella (small-flower umbrella sedge, Cyperus difformis); experiment: Test B flooded paddy test, umbrella sedge; settings: Cyperus difformis, 360 h; Flood, 250 g ai/ha, applied to paddy water, 2-leaf stage, visual evaluation after 13 to 15 d; read-out: Plant response rating, Sedge, Umbrella (0 to 100 scale, 0 is no effect, 100 is complete control)
Method in brief: (§1)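 2-leaf seedlings; pots flooded 3 cm above soil; compound added straight to paddy water; depth maintained. Greenhouse 13–15 d. Visual rating vs controls, 0–100 scale (0 = no effect, 100 = complete control).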

[2] = test system: ryegrass, Italian (Lolium multiflorum); experiment: Test A postemergence, Italian ryegrass; settings: Lolium multiflorum, post-emergence, 240 h, 0 to 100 scale, read-out: Plant response rating, Ryegrass, Italian
Method in brief: (§2)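 0–100 visual control rating, ~10 d post-treatment, greenhouse. Pre = directed soil spray on seeded loam/sand; post = spray at 1–2 leaf stage. Surfactant-containing solvent formulation.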

[3] = test system: foxtail, giant (Setaria faberii); experiment: Test A preemergence, giant foxtail; settings: 0 to 100 scale
Method in brief: as §2

[4] = test system: kochia (Kochia scoparia); experiment: Test A preemergence, kochia; settings: 0 to 100 scale
Method in brief: as §2

[5] = test system: pigweed (Amaranthus retroflexus); experiment: Test A postemergence, pigweed; settings: Amaranthus retroflexus, post-emergence, 240 h, 0 to 100 scale, read-out: Plant response rating, Pigweed
Method in brief: as §2

[6] = test system: ragweed (common ragweed, Ambrosia elatior); experiment: Test A postemergence, ragweed; settings: Ambrosia artemisiifolia, post-emergence, 240 h, 0 to 100 scale, read-out: Plant response rating, Ragweed
Method in brief: as §2

[7] = test system: wheat (Triticum aestivum); experiment: Test A postemergence, wheat; settings: Triticum aestivum, post-emergence, 240 h, 0 to 100 scale, read-out: Plant response rating, Wheat
Method in brief: as §2

[8] = test system: blackgrass (Alopecurus myosuroides); experiment: Test A postemergence, blackgrass; settings: Alopecurus myosuroides, post-emergence, 240 h, 0 to 100 scale, read-out: Plant response rating, Blackgrass
Method in brief: as §2

[9] = test system: foxtail, giant (Setaria faberii); experiment: Test A postemergence, giant foxtail; settings: Setaria faberi, post-emergence, 240 h, 0 to 100 scale, read-out: Plant response rating, Foxtail, Giant
Method in brief: as §2

[10] = test system: barnyardgrass (Echinochloa crus-galli); experiment: Test A postemergence, barnyardgrass; settings: Echinochloa crus-galli, post-emergence, 240 h, 0 to 100 scale, read-out: Plant response rating, Barnyardgrass
Method in brief: as §2

[11] = test system: barnyardgrass (Echinochloa crus-galli); experiment: Test A preemergence, barnyardgrass; settings: 0 to 100 scale
Method in brief: as §2

[12] = test system: ragweed (common ragweed, Ambrosia elatior); experiment: Test A preemergence, ragweed; settings: 0 to 100 scale
Method in brief: as §2

[13] = test system: pigweed (Amaranthus retroflexus); experiment: Test A preemergence, pigweed; settings: 0 to 100 scale
Method in brief: as §2

[14] = test system: ducksalad (Heteranthera limosa); experiment: Test B flooded paddy test, ducksalad; settings: Heteranthera limosa, 360 h; Flood, 250 g ai/ha, applied to paddy water, 2-leaf stage, visual evaluation after 13 to 15 d; read-out: Plant response rating, Ducksalad (0 to 100 scale, 0 is no effect, 100 is complete control)
Method in brief: as §1

[15] = test system: galium (catchweed bedstraw, Galium aparine); experiment: Test A postemergence, galium; settings: Galium, post-emergence, 240 h, 0 to 100 scale, read-out: Plant response rating, Galium
Method in brief: as §2

[16] = test system: ryegrass, Italian (Lolium multiflorum); experiment: Test A preemergence, Italian ryegrass; settings: 0 to 100 scale
Method in brief: as §2

[17] = test system: barnyardgrass (Echinochloa crus-galli); experiment: Test B flooded paddy test, barnyardgrass; settings: Echinochloa crus-galli, 360 h; Flood, 250 g ai/ha, applied to paddy water, 2-leaf stage, visual evaluation after 13 to 15 d; read-out: Plant response rating, Barnyardgrass (0 to 100 scale, 0 is no effect, 100 is complete control)
Method in brief: as §1

[18] = test system: rice (Oryza sativa); experiment: Test B flooded paddy test, rice; settings: Oryza sativa, 360 h; Flood, 250 g ai/ha, applied to paddy water, 2-leaf stage, visual evaluation after 13 to 15 d; read-out: Plant response rating, Rice (0 to 100 scale, 0 is no effect, 100 is complete control)
Method in brief: as §1

[19] = test system: kochia (Kochia scoparia); experiment: Test A postemergence, kochia; settings: Bassia scoparia, post-emergence, 240 h, 0 to 100 scale, read-out: Plant response rating, Kochia
Method in brief: as §2

[20] = test system: corn (Zea mays); experiment: Test A postemergence, corn; settings: Zea mays, post-emergence, 240 h, 0 to 100 scale
Method in brief: as §2

`C[C@@H](Nc1ncc(C(F)(F)F)c(N)n1)C1Cc2ccccc2C1` [Compound 13, N2-[(1R)-1-(2,3-dihydro-1H-inden-2-yl)ethyl]-5-(trifluoromethyl)-2,4-pyrimidinediamine] gave a pest or weed control at 250 g/ha [1] of 95%, a pest or weed control at 125 g/ha ([2]; 125 g ai/ha) of 0% and a pest or weed control at 500 g/ha ([2]; 500 g ai/ha) of 20%. For the same molecule, the “Plant response rating, Foxtail, Giant” value ([3]; 125 g ai/ha) was 100, the “Plant response rating, Foxtail, Giant” value ([3]; 500 g ai/ha) was 100 and the “Plant response rating, Kochia” value ([4]; 125 g ai/ha) was 100. The “Plant response rating, Kochia” value ([4]; 500 g ai/ha) was 100, the pest or weed control at 125 g/ha ([5]; 125 g ai/ha) was 100% and the pest or weed control at 500 g/ha ([5]; 500 g ai/ha) was 100%. For the same molecule, the pest or weed control at 125 g/ha ([6]; 125 g ai/ha) was 30%, the pest or weed control at 500 g/ha ([6]; 500 g ai/ha) was 80% and the plant injury at 125 g/ha ([7]; 125 g ai/ha) was 0%. For the same molecule, the plant injury at 500 g/ha ([7]; 500 g ai/ha) was 20%, the pest or weed control at 125 g/ha ([8]; 125 g ai/ha) was 10% and the pest or weed control at 500 g/ha ([8]; 500 g ai/ha) was 30%. It also gave a pest or weed control at 125 g/ha ([9]; 125 g ai/ha) of 80%, a pest or weed control at 500 g/ha ([9]; 500 g ai/ha) of 100% and a pest or weed control at 125 g/ha ([10]; 125 g ai/ha) of 30%. For the same molecule, the pest or weed control at 500 g/ha ([10]; 500 g ai/ha) was 60%, the “Plant response rating, Barnyardgrass” value ([11]; 125 g ai/ha) was 90 and the “Plant response rating, Barnyardgrass” value ([11]; 500 g ai/ha) was 100. The “Plant response rating, Ragweed” value ([12]; 125 g ai/ha) was 100, the “Plant response rating, Ragweed” value ([12]; 500 g ai/ha) was 100 and the “Plant response rating, Pigweed” value ([13]; 125 g ai/ha) was 100. The “Plant response rating, Pigweed” value ([13]; 500 g ai/ha) was 100, the pest or weed control at 250 g/ha [14] was 75% and the pest or weed control at 125 g/ha ([15]; 125 g ai/ha) was 80%. The pest or weed control at 500 g/ha ([15]; 500 g ai/ha) was 80%, the “Plant response rating, Ryegrass, Italian” value ([16]; 125 g ai/ha) was 60 and the “Plant response rating, Ryegrass, Italian” value ([16]; 500 g ai/ha) was 100. It also gave a pest or weed control at 250 g/ha [17] of 90%, a plant injury at 250 g/ha [18] of 10% and a pest or weed control at 125 g/ha ([19]; 125 g ai/ha) of 90%. The pest or weed control at 500 g/ha ([19]; 500 g ai/ha) was 100%, the Corn plant response rating (crop injury, 0 = no effect, 100 = complete kill) at 125 g/ha ([20]; 125 g ai/ha) was 10% and the Corn plant response rating (crop injury, 0 = no effect, 100 = complete kill) at 500 g/ha ([20]; 500 g ai/ha) was 60%.
